# Read-outs that look alike come from different tables or passages of the source.
# Tests used:
# [1] = tested on: Lentivirus-NC virus infection of H1299 cells; conditions: different virus titers (MOI 5, 10, 20), FIGS. 7 and 9
# Description: H1299 Human lung cancer cells, cultured with RPMI-1640 10% fetal bovine serum in an incubator with 5% CO2 and saturated humidity at 37° C. • RPMI-1640 + 10% Fetal Bovine Serum • PBS (Life Science Products&Services) • Trypsin-EDTA Solution (Gibco) • 24-well plate (Corning) • Lentivirus-NC virus solution (GenePharma, 1×10^9 TU/mL)
# Principles and procedures for virus infection experiment • 1.
# [2] = tested on: plasma coagulation; conditions: for APTT: in vitro, rabbit platelet poor plasma, x±s, n = 3
# Description: (§1) Coagulation is a complex process involving a series of coagulation factors, which essentially include two pathways, “intrinsic coagulation pathway” and “extrinsic coagulation pathway”. Activated partial thromboplastin time (APTT), prothrombin time (PT), and thrombin time (TT) are adopted usually in the laboratory to evaluate the anticoagulant effect.
# (§2) New Zealand rabbits were anaesthetized with chloral hydrate, heart puncture was conducted to collect blood into an anticoagulant tube containing ⅒ vol 3.8% sodium citrate, followed by centrifuging at 3000 rpm for 15 min, supernatant was collected to obtain platelet poor plasma which was stored in a refrigerator for later use.
# (§3) The compounds were prepared with DMSO to obtain stock solutions with a concentration of 10 mM. Samples to be tested were diluted with normal saline during the test, with a final concentration of 50 µM, 12.5 µM, 3.13 µM, 0.78 µM, 0.20 µM, and 0.05 µM.
# APTT Assay: 100 µL of plasma was mixed well with 50 µL of samples to tested respectively, the mixture was pre-heated at 37° C. for 2 min, then 50 µL of APTT reagent was added, followed by incubation at 37° C. for 3 min, addition of 50 µL of 0.025 mol/L CaCl2, and detection on an automatic blood coagulation analyzer to record the coagulation time.
# (§4) One-way analysis of variance (One-Way ANOVA) was performed for multi-group comparison; pairwise comparison for means among groups was performed, with Dunnett’s multiple comparisons test in case of homogeneity of variance, and Dunnett’s T3 multiple comparisons test in case of heterogeneity of variance. P <0.05 means statistical significance.
# [3] = tested on: plasma coagulation; conditions: in vitro, rabbit platelet poor plasma, x±s, n = 3
# Description: as §1, §2, §3
# PT Assay: 50 µL of plasma was mixed well with 20 µL of samples to be tested respectively, the mixture was pre-heated at 37° C. for 2 min, followed by incubation at 37° C. for 3 min, and addition of 100 µL of PT reagent. The mixture was mixed well and tested to record the coagulation time.
# as §4
# [4] = tested on: plasma coagulation; conditions: in vitro, rabbit platelet poor plasma, x±s, n = 3; remark: listed apart in the source
# Description: as §1, §2, §3
# TT Assay: 100 µL of prepared plasma was mixed well with 50 µL of the sample mixture to be tested, and pre-heated at 37° C. for 2 min, followed by addition of 50 µL of TT reagent to the mixture and detection to record results of the instrument.
# as §4
structure (smiles),measurement,setting,value
O=C(Oc1ccc(-c2coc3c(OC(=O)c4cc(O)c(O)c(O)c4)cc(OC(=O)c4cc(O)c(O)c(O)c4)c(OC(=O)c4cc(O)c(O)c(O)c4)c3c2=O)cc1)c1cc(O)c(O)c(O)c1 [Compound 4],inhibition of virus infection in cells,[1]; 10 µM concentration,significantly inhibited virus infection in cells
same,inhibition of virus infection in cells,[1]; 20 µM concentration,significantly inhibit virus infection in cells
O=C(O)CC1OC(O)C(OC(=O)c2cc(O)c(O)c(O)c2)C(OC(=O)c2cc(O)c(O)c(O)c2)C1OC(=O)c1cc(O)c(O)c(O)c1 (stereo not shown) [Compound 6],"inhibition of plasma coagulation (coagulation indexes APTT, PT, and TT)","[2]; dose gradients 50.00, 12.50, 3.13, 0.78, 0.20, 0.05 (printed µL), covers APTT, PT and TT",dose-dependently inhibit plasma coagulation
same,APTT,[2]; 0.05 µM,20.12 ± 0.09 s
same,APTT,[2]; 0.20 µM,24.03 ± 1.05 s
same,APTT,[2]; 0.78 µM,26.84 ± 0.79 s
same,APTT,[2]; 3.13 µM,37.72 ± 1.83 s
same,APTT,[2]; 12.50 µM,75.11 ± 2.58 s
same,APTT,[2]; 50.00 µM,106.51 ± 0.94 s
same,inhibition of virus infection in cells,[1]; 20 µM concentration,significantly inhibit virus infection in cells
same,PT,[3]; 0.05 µM,9.76 ± 0.85 s
same,PT,[3]; 0.20 µM,10.11 ± 0.30 s
same,PT,[3]; 0.78 µM,10.54 ± 0.37 s
same,PT,[3]; 3.13 µM,12.83 ± 0.19 s
same,PT,[3]; 12.50 µM,13.73 ± 0.17 s
same,PT,[3]; 50.00 µM,16.66 ± 0.45 s
same,TT,[4]; 0.05 µM,23.35 ± 0.31 s
same,TT,[4]; 0.20 µM,22.90 ± 0.09 s
same,TT,[4]; 0.78 µM,23.95 ± 0.07 s
same,TT,[4]; 3.13 µM,25.25 ± 0.27 s
same,TT,[4]; 12.50 µM,28.89 ± 0.68 s
same,TT,[4]; 50.00 µM,38.87 ± 0.77 s

# Source: US20230322837A1, “PREPARATION METHOD FOR AND APPLICATION OF CLASS OF STELLATE BIFUNCTIONAL COMPOUNDS TARGETING SPIKE PROTEIN AGAINST RESPIRATORY TRACT INFECTION VIRUS AND SALT THEREOF” (priority 2020, published 2023)
